Read-outs that look alike come from different tables or passages of the source.
What was measured:
H2O2-degrading enzymes = tested on: H2O2-degrading enzymes
Procedure: (§1) The reaction pH was Maintained at 9.8-10.0. The Production process was controlled to ensure synchronous metering of the two chemicals, continuous mixing at the predetermined molar ratio and reproducible production of a stable biofilm inhibiting substance stock solution for the duration of the trial and longer. […] After 850 minutes the dosing rate was reduced to 85 g/ton expressed as total Cl2 by feeding the biofilm inhibiting substance semi-continuously. Various parameters were monitored during start-up of the trial: Residual biofilm inhibiting substance was measured (using a Hach pocket colorimeter, total Cl2, based on the DPD method adapted from Standard Methods for Examination of Waste and Waste Water). Residual hydrogen peroxide was measured using either LASA 20 with the LCW 085 method, based on the method of Jander/Blasius, Lehrbuch der Analytischen and Praparative Anorganischen Chemie, as described in the Handbook of Photometrical Operation Analysis by Dr. Lange for the LASA 20, October 1997 (in cases of high concentration), or Merck Test Strips (0.5-25 ppm). When necessary, samples were diluted with DI water.
(§2) The activity of H2O2-degrading enzymes in the process water was measured according to the following procedure: a commercial solution of H2O2 was diluted with DI water to a final concentration of 100 g/l water (10%). One ml of the diluted H2O2 solution was added to 9 ml of a sample taken from the treated de-inking process water to form a final feed rate of 10 g/l H2O2. The combined sample was incubated at room temperature for 15 minutes, at which time residual H2O2 was measured. Hydrogen peroxide diluted in DI water served as a control. […] Adenosine triphosphate (ATP) measurements in Table 6 are based on the following process: during the change from ATP to Adenosine monophosphate (AMP) in the presence of luciferin and luciferase, a defined quantity of light is emitted per ATP molecule. This emitted light is measured by a photometer. The results are given in relative terms and are thus relative and not absolute (RLU=relative light unit). The values can be correlated with microbial activity in the sense that for high viable counts, a high ATP measurement is obtained, and vice versa.

[1] = tested on: planktonic microorganisms
Procedure: as §1, §2

biofilm [2] = assay: Pilot plant wastewater pipes, difference in Hazen-Williams coefficient treated vs control pipe; settings: for HW Diff. treated pipe - Control: single 3 h treatment on day 1 at 10 ppm as total chlorine
Procedure: Treated wastewater was pumped through several pipes of 10 m length and 4 inches inner diameter in a pilot plant. […] Pressure drop through each pipe was monitored on-line, and average HW coefficients were calculated.
The biofilm inhibiting substance in this example was produced as follows, using a small feeding system was built specifically for this trial. […] The concentration of the biofilm inhibiting substance pre-injection solution was ˜3600 ppm and the pH was 9.2-9.6. […]

biofilm [3] = assay: Waste water fouling control in a 7 km pipe, Hazen-Williams coefficient
Procedure: Treated wastewater was piped from a wastewater treatment plant to a location 7 kilometers away.
(The Hazen-Williams coefficient is used to express water flow through industrial pipes. It is calculated using the formula
[formula] wherein P is the friction pressure drop expressed in pounds per square inch per 1000 feet of pipe length, B is the flow rate in barrels per hour, s is the specific gravity of the liquid, C=a friction factor (the Hazen-Williams coefficient), and d is the internal diameter of the pipe in inches. P and B are measured for a given pipe, s and d are treated as constants, and C is calculated. The results are presented as the Hazen-Williams coefficient.
Waste water (up to 10 m^3/h) was used to appropriately dilute both chemicals. An on-line pH meter controlled the production process and the hypochlorite feeding rate to ensure the production of a stable biofilm inhibiting substance. The biofilm inhibiting substance was injected into the treated waste pipe as it was produced. Concentration of the biofilm inhibiting substance stock solution was 3000-4000 ppm; the pH was maintained at 9.5-10.

[4] = time 100 min, continuous feed 170 g/ton as total Cl2
[5] = time 240 min, continuous feed 170 g/ton as total Cl2
[6] = time 850 min, continuous feed 170 g/ton as total Cl2
[7] = time 1500 min, semi-continuous feed 85 g/ton as total Cl2 since 850 min

bromide activated chloramine [Fuzzicide BAC]
Reduction in Catalase Activity, as % of initial H2O2 concentration (H2O2-degrading enzymes; time 0 min (start of dosing, baseline), 10 g/l H2O2 added to sample, 15 min): 37.6% | Reduction in Catalase Activity, as % of initial H2O2 concentration (H2O2-degrading enzymes; [4]): 17.8% | Reduction in Catalase Activity, as % of initial H2O2 concentration (H2O2-degrading enzymes; [5]): 54.7% | Reduction in Catalase Activity, as % of initial H2O2 concentration (H2O2-degrading enzymes; [6]): 92% | Reduction in Catalase Activity, as % of initial H2O2 concentration (H2O2-degrading enzymes; [7]): 135.1% | ATP (RLU) ([1]; time 0 min (start of dosing, baseline)): 132276 RLU | ATP (RLU) [1, 4]: 6340 RLU | ATP (RLU) [1, 5]: 2861 RLU | ATP (RLU) [1, 6]: 535 RLU | ATP (RLU) [1, 7]: 3568 RLU | HW Diff. treated pipe - Control (biofilm [2]; day 1): 14.3 | HW Difference, Fuzzicide BAC - Control (biofilm [2]; day 1 of trial (treatment day), 10 ppm as total chlorine for 3 h three times a week): 10.12 | HW Diff. treated pipe - Control (biofilm [2]; day 2): 13.7 | HW Difference, Fuzzicide BAC - Control (biofilm [2]; day 2 of trial, 10 ppm as total chlorine for 3 h three times a week): 11.25 | HW Diff. treated pipe - Control (biofilm [2]; day 3): 12.8 | HW Difference, Fuzzicide BAC - Control (biofilm [2]; day 3 of trial, 10 ppm as total chlorine for 3 h three times a week): 11.62 | HW Diff. treated pipe - Control (biofilm [2]; day 4): 16.5 | HW Difference, Fuzzicide BAC - Control (biofilm [2]; day 4 of trial, 10 ppm as total chlorine for 3 h three times a week): 13.04 | HW Diff. treated pipe - Control (biofilm [2]; day 5): 16.0 | HW Difference, Fuzzicide BAC - Control (biofilm [2]; day 5 of trial (treatment day), 10 ppm as total chlorine for 3 h three times a week): 12.35 | HW Diff. treated pipe - Control (biofilm [2]; day 6): 16.55 | HW Difference, Fuzzicide BAC - Control (biofilm [2]; day 6 of trial, 10 ppm as total chlorine for 3 h three times a week): 13.76 | HW Diff. treated pipe - Control (biofilm [2]; day 7): 15.8 | HW Difference, Fuzzicide BAC - Control (biofilm [2]; day 7 of trial, 10 ppm as total chlorine for 3 h three times a week): 15.13 | HW Diff. treated pipe - Control (biofilm [2]; day 8): 14.3 | HW Diff. treated pipe - Control (biofilm [2]; day 9): 16.9 | HW Diff. treated pipe - Control (biofilm [2]; day 10): 15.3 | HW Diff. treated pipe - Control (biofilm [2]; day 11): 16.0 | HW Diff. treated pipe - Control (biofilm [2]; day 12): 18.1 | HW Diff. treated pipe - Control (biofilm [2]; day 13): 17.2 | HW Diff. treated pipe - Control (biofilm [2]; day 14): 15.0 | HW Diff. treated pipe - Control (biofilm [2]; day 15): 11.9 | HW Diff. treated pipe - Control (biofilm [2]; day 16): 9.1 | HW Diff. treated pipe - Control (biofilm [2]; day 17): 7.3 | HW Diff. treated pipe - Control (biofilm [2]; day 18): 7.2 | HW Difference, Fuzzicide BAC - Control (biofilm [2]; day 26 of trial, between days 7 and 26 the biocide was improperly prepared, rendering it ineffective): 6.11 | HW Difference, Fuzzicide BAC - Control (biofilm [2]; day 27 of trial (treatment day), 10 ppm as total chlorine for 3 h three times a week): 6.67 | HW Difference, Fuzzicide BAC - Control (biofilm [2]; day 28 of trial, 10 ppm as total chlorine for 3 h three times a week): 7.13 | HW Difference, Fuzzicide BAC - Control (biofilm [2]; day 29 of trial (treatment day), 10 ppm as total chlorine for 3 h three times a week): 8.75 | HW Difference, Fuzzicide BAC - Control (biofilm [2]; day 30 of trial, 10 ppm as total chlorine for 3 h three times a week): 8.93 | HW Difference, Fuzzicide BAC - Control (biofilm [2]; day 31 of trial, 10 ppm as total chlorine for 3 h three times a week): 8.93 | HW Difference, Fuzzicide BAC - Control (biofilm [2]; day 32 of trial, 10 ppm as total chlorine for 3 h three times a week): 9.02 | HW Difference, Fuzzicide BAC - Control (biofilm [2]; day 33 of trial (treatment day), 10 ppm as total chlorine for 3 h three times a week): 8.89 | HW Difference, Fuzzicide BAC - Control (biofilm [2]; day 34 of trial, 10 ppm as total chlorine for 3 h three times a week): 8.93 | HW Difference, Fuzzicide BAC - Control (biofilm [2]; day 35 of trial, 10 ppm as total chlorine for 3 h three times a week): 9.12 | HW Difference, Fuzzicide BAC - Control (biofilm [2]; day 36 of trial (treatment day), 10 ppm as total chlorine for 3 h three times a week): 10.31 | HW Difference, Fuzzicide BAC - Control (biofilm [2]; day 37 of trial, 10 ppm as total chlorine for 3 h three times a week): 9.96 | HW Difference, Fuzzicide BAC - Control (biofilm [2]; day 38 of trial, 10 ppm as total chlorine for 3 h three times a week): 13.97 | Hazen-Williams coefficient (HW) maintenance (biofilm [3]; 10 ppm as total chlorine for three hours once a week, over a period of months, after cleaning): constant value | Hazen-Williams coefficient (HW) (biofilm [3]; 10 ppm as total chlorine once a day for three hours for 6 consecutive days, HW before ~90): ~104 | Hazen-Williams coefficient (HW) (biofilm [3]; combination of pigging and 10 ppm (as total Cl2) once a day for three hours, HW before ~104): ~116
